Laboratory results as given in US8367873B2, “Phenyl-substituted bicyclooctane-1,3-dione derivatives” (Bayer Cropscience AG, priority 2008, dated 2013).

Tests used:
Assay type in all cases: in vivo
[1] = tested on: monocotylidonous and dicotylidonous weed and crop plants; assay: Herbicidal post-emergence action (other test plants); conditions: post-emergence method; for herbicidal effect against AVEFA (Avena fatua): 80 g/ha
Outline: (§1)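 Greenhouse plants in sandy loam sprayed at the one-leaf stage, 2-3 weeks after sowing, with WP-formulated compound at varied rates in 600 l/ha water plus 0.2% wetting agent. Damage scored visually after about three weeks as percent effect versus untreated controls (100% = dead).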

[2] = tested on: monocotylidonous and dicotylidonous weed and crop plants; assay: Herbicidal pre-emergence action (other test plants); conditions: pre-emergence method, 80 g/ha, greenhouse, visual assessment vs untreated controls
Outline: (§2)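 Seeds sown in sandy loam and covered; WP-formulated compounds applied to the soil surface as aqueous suspension at 600 l/ha with 0.2% wetting agent, at varying rates. Greenhouse-grown; emergence damage scored visually after three weeks versus untreated controls (100% = plants dead, 0% = like control).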

Echinocloa crus-galli [3] = assay: Herbicidal pre-emergence action; conditions: pre-emergence method, 80 g/ha, greenhouse, visual assessment vs untreated controls
Outline: as §2

Alopecurus myosuroides [4] = assay: Herbicidal pre-emergence action; conditions: pre-emergence method, 80 g/ha, greenhouse, visual assessment vs untreated controls
Outline: as §2

Lolium multiflorum [5] = assay: Herbicidal pre-emergence action; conditions: pre-emergence method, 80 g/ha, greenhouse, visual assessment vs untreated controls
Outline: as §2

Setaria viridis [6] = assay: Herbicidal pre-emergence action; conditions: pre-emergence method, 80 g/ha, greenhouse, visual assessment vs untreated controls
Outline: as §2

Echinocloa crus-galli [7] = assay: Herbicidal post-emergence action; conditions: post-emergence method; for herbicidal effect against ECHCG (Echinochloa crus-galli): 80 g/ha
Outline: as §1

Alopecurus myosuroides [8] = assay: Herbicidal post-emergence action; conditions: post-emergence method; for herbicidal effect against ALOMY (Alopecurus myosuroides): 80 g/ha
Outline: as §1

Lolium multiflorum [9] = assay: Herbicidal post-emergence action; conditions: post-emergence method; for herbicidal effect against LOLMU (Lolium multiflorum): 80 g/ha
Outline: as §1

Setaria viridis [10] = assay: Herbicidal post-emergence action; conditions: post-emergence method; for herbicidal effect against SETVI (Setaria viridis): 80 g/ha
Outline: as §1

Compound | herbicidal effect against AVEFA (Avena fatua) [1] [%] | herbicidal effect AVEFA [2] [%] | herbicidal effect ECHCG (Echinocloa crus-galli [3]) [%] | herbicidal effect ALOMY (Alopecurus myosuroides [4]) [%] | herbicidal effect LOLMU (Lolium multiflorum [5]) [%] | herbicidal effect SETVI (Setaria viridis [6]) [%] | herbicidal effect against ECHCG (Echinochloa crus-galli) (Echinocloa crus-galli [7]) [%] | herbicidal effect against ALOMY (Alopecurus myosuroides) (Alopecurus myosuroides [8]) [%] | herbicidal effect against LOLMU (Lolium multiflorum) (Lolium multiflorum [9]) [%] | herbicidal effect against SETVI (Setaria viridis) (Setaria viridis [10]) [%] | pest or weed control at 80 g/ha ([1]; 504 h, Avena fatua, read-out: herbicidal effect against AVEFA (Avena fatua)) [%] | pest or weed control at 80 g/ha (Echinocloa crus-galli [7]; Echinochloa crus-galli, 504 h, read-out: herbicidal effect against ECHCG (Echinochloa crus-galli)) [%] | pest or weed control at 80 g/ha (Alopecurus myosuroides [8]; Alopecurus myosuroides, 504 h, read-out: herbicidal effect against ALOMY (Alopecurus myosuroides)) [%] | pest or weed control at 80 g/ha (Lolium multiflorum [9]; Lolium multiflorum, 504 h, read-out: herbicidal effect against LOLMU (Lolium multiflorum)) [%] | pest or weed control at 80 g/ha (Setaria viridis [10]; Setaria viridis, 504 h, read-out: herbicidal effect against SETVI (Setaria viridis)) [%]
COc1cc(C)cc(C)c1C1=C(O)C2CC3(CC2C1=O)OCCCCO3 (centres unmarked) [I-a-50] | 100 | 60 | 80 | 100 | 100 | 70 | 100 | 100 | 100 | 100 | – | – | – | – | –
C=C1CC2C(=O)C(c3c(C)cc(C)cc3CC)=C(O)C2C1 (centres unmarked) [I-a-55] | 0 | 60 | 100 | 60 | 50 | 90 | 100 | 20 | 40 | 100 | – | – | – | – | –
CCc1cc(C)cc(C)c1C1=C(O)C2CC3(CC2C1=O)OCCO3 (centres unmarked) [I-a-57] | 100 | 60 | 100 | 80 | 100 | 90 | 100 | 100 | 100 | 100 | – | – | – | – | –
CCc1cc(C)cc(C)c1C1=C(O)C2CC3(CC2C1=O)OCCCCO3 (centres unmarked) [I-a-61] | 90 | 60 | 80 | 70 | 100 | 60 | 100 | 90 | 100 | 90 | – | – | – | – | –
CCc1cc(C)cc(C)c1C1=C(O)C2CC3(COC(C)(C)O3)CC2C1=O (centres unmarked) [I-a-62] | 80 | 40 | 100 | 100 | 100 | 90 | 100 | 100 | 100 | 90 | – | – | – | – | –
CCc1cc(C)cc(CC)c1C1=C(O)C2CC(=NOC(C)(C)C)CC2C1=O (centres unmarked) [I-a-68] | 0 | 40 | 50 | 40 | 80 | 0 | 100 | 90 | 100 | 40 | – | – | – | – | –
CCc1cc(C)cc(CC)c1C1=C(O)C2CC(=NOCC(C)C)CC2C1=O (centres unmarked) [I-a-69] | 30 | 70 | 20 | 50 | 70 | 80 | 100 | 90 | 100 | 80 | – | – | – | – | –
CCc1cc(C)cc(CC)c1C1=C(O)C2CC(=NOCC(F)(F)F)CC2C1=O (centres unmarked) [I-a-70] | 0 | 60 | 80 | 80 | 80 | 60 | 100 | 90 | 100 | 60 | – | – | – | – | –
CCc1cc(C)cc(CC)c1C1=C(OC(C)=O)[C@H]2C[C@@]3(COC(C)(C)O3)C[C@H]2C1=O [I-b-1] | – | 40 | 40 | 90 | 100 | 70 | – | – | – | – | 60 | 100 | 100 | 100 | 40
CCC(=O)OC1=C(c2c(CC)cc(C)cc2CC)C(=O)C2CC3(COC(C)(C)O3)CC12 (centres unmarked) [I-b-2] | 60 | 50 | 30 | 90 | 100 | 40 | 90 | 100 | 100 | 80 | – | – | – | – | –
CCc1cc(C)cc(CC)c1C1=C(OC(=O)C(C)C)C2CC3(COC(C)(C)O3)CC2C1=O (centres unmarked) [I-b-3] | 40 | 60 | 0 | 90 | 100 | 50 | 100 | 100 | 100 | 20 | – | – | – | – | –
CCc1cc(C)cc(CC)c1C1=C(OC(=O)COC)C2CC3(COC(C)(C)O3)CC2C1=O (centres unmarked) [I-b-4] | 90 | 50 | 70 | 90 | 100 | 60 | 100 | 100 | 100 | 60 | – | – | – | – | –
CCC(=O)OC1=C(c2c(CC)cc(C)cc2CC)C(=O)C2CC3(COC(C)(C)O3)CC12 (centres unmarked) [I-b-6] | 100 | 80 | 30 | 100 | 100 | 60 | 100 | 90 | 100 | 90 | – | – | – | – | –
CCc1cc(C)cc(CC)c1C1=C(OC(=O)C(C)C)C2CC3(COC(C)(C)O3)CC2C1=O (centres unmarked) [I-b-7] | 100 | 80 | 60 | 100 | 100 | 70 | 100 | 90 | 100 | 90 | – | – | – | – | –
CCc1cc(C)cc(CC)c1C1=C(OC(=O)C(C)(C)C)C2CC3(COC(C)(C)O3)CC2C1=O (centres unmarked) [I-b-8] | 70 | 80 | 90 | 100 | 100 | 90 | 80 | 90 | 100 | 60 | – | – | – | – | –
CCc1cc(C)cc(CC)c1C1=C(OC(=O)C(C)C)C2CC3(CC2C1=O)OCC=CCO3 (centres unmarked) [I-b-12] | 100 | 70 | 100 | 100 | 100 | 90 | 100 | 90 | 100 | 100 | – | – | – | – | –
CCc1cc(C)cc(CC)c1C1=C(OC(=O)C(C)C)C2CC3(CC2C1=O)OCC(C)CO3 (centres unmarked) [I-b-14] | 100 | 70 | 100 | 100 | 100 | 100 | 100 | 100 | 100 | 100 | – | – | – | – | –
